Values after ≈ are worked out from the molar mass of the structure shown. Active and inactive are the calls of the source. No cut-off for these calls is given here.
Legend:
[1] = test system: P388; experiment: Cytotoxicity against mouse P388 cells; format: functional, cell-based; conditions: Mus musculus, P388
[2] = test system: Human alphaherpesvirus 1; experiment: Antiviral activity against herpes simplex virus type-1; format: functional, organism-based
[3] = test system: Vesicular stomatitis virus; experiment: Antiviral activity against Vesicular stomatitis virus; format: functional, organism-based
[4] = test system: HT-29; experiment: (§1) Cytotoxicity against human HT29 cells; format: functional, cell-based; conditions: Homo sapiens, HT-29
[5] = test system: A549; experiment: Cytotoxicity against human A549 cells; format: functional, cell-based; conditions: Homo sapiens, A549
[6] = Inhibition of human SKW3 cells adhesion to soluble ICAM1; format: functional, cell-based
[7] = test system: SF-268; experiment: Cytotoxicity against human SF268 cells at 30 uM; format: functional, cell-based
[8] = test system: NCI-H460; experiment: Cytotoxicity against human NCI-H460 cells; format: functional, cell-based; conditions: Homo sapiens, NCI-H460
[9] = test system: SF-268; experiment: Cytotoxicity against human SF268 cells; format: functional, cell-based; conditions: sf-268
[10] = test system: HeLa; experiment: Cytotoxicity against human HeLa cells; format: functional, cell-based
[11] = test system: MCF7; experiment: Cytotoxicity against human MCF7 cells; format: functional, cell-based; conditions: Homo sapiens, MCF7
[12] = test system: MIA PaCa-2; experiment: Cytotoxicity against human MIA-PaCa2 cells
[13] = test system: BT-549; experiment: Cytotoxicity against human BT-549 cells; format: functional
[14] = test system: SK-MEL-28; experiment: Cytotoxicity against human SK-MEL-28 cells; format: functional
[15] = test system: CAKI-1; experiment: Cytotoxicity against human CAKI1 cells; format: functional
[16] = Cytotoxicity against human CCRF-GEM cells; format: functional
[17] = Cytotoxicity against mouse Ehrlich Ascites carcinoma by […] assay; format: functional
[18] = test system: MOLT-4; experiment: Cytotoxicity against human MOLT4 cells
[19] = test system: OVCAR-3; experiment: Cytotoxicity against human OVCAR-3 cells; format: functional, cell-based
[20] = Cytotoxicity against human HB60 cells; format: functional
[21] = test system: COLO 205; experiment: Cytotoxicity against human COLO205 cells
[22] = test system: NCI-H23; experiment: Cytotoxicity against human NCI-H23 cells; format: functional, cell-based
[23] = Cytotoxicity against human RES MDA-MB-231/ATCC cells; format: functional
[24] = test system: TK-10; experiment: Cytotoxicity against human TK10 cells; format: functional
[25] = test system: UACC-62; experiment: Cytotoxicity against human UACC62 cells; format: functional
[26] = test system: 786-0; experiment: Cytotoxicity against human renal 7860 cells by soft agar assay; format: functional
[27] = test system: PC-3; experiment: Cytotoxicity against human PC3 cells; format: functional, cell-based; conditions: Homo sapiens, PC-3
[28] = test system: HCC 2998; experiment: Cytotoxicity against human HCC2998 cells; format: functional, cell-based
[29] = test system: U-251; experiment: Cytotoxicity against human U251 cells; format: functional, cell-based
[30] = test system: UACC-257; experiment: Cytotoxicity against human UACC257 cells; format: functional
[31] = test system: SNB-19; experiment: Cytotoxicity against human SNB19 cells; format: functional
[32] = Cytotoxicity against human K652 cells; format: functional
[33] = test system: EKVX; experiment: Cytotoxicity against human EKVX cells; format: functional
[34] = test system: ACHN; experiment: Cytotoxicity against human ACHN cells; format: functional, cell-based
[35] = Cytotoxicity against human RPMI8266 cells; format: functional
[36] = test system: SK-MEL-2; experiment: Cytotoxicity against human SK-MEL-2 cells; format: functional
[37] = test system: KM12; experiment: Cytotoxicity against human KM12 cells; format: functional, cell-based
[38] = Cytotoxicity against human MCF7/ADR-RES cells; format: functional; conditions: NCI/ADR-RES
[39] = test system: SN12C; experiment: Cytotoxicity against human SN12C cells; format: functional
[40] = test system: SW-620; experiment: Cytotoxicity against human SW620 cells; format: functional
[41] = test system: DU-145; experiment: Cytotoxicity against human DU145 cells; format: functional, cell-based; conditions: Homo sapiens, DU-145; read-out: GI50
[42] = test system: OVCAR-4; experiment: Cytotoxicity against human OVCAR4 cells; format: functional, cell-based
[43] = test system: SK-MEL-5; experiment: Cytotoxicity against human SK-MEL-5 cells; format: functional
[44] = Cytotoxicity against human CFUGM; format: functional; conditions: CFU-GM
[45] = test system: OVCAR-5; experiment: Cytotoxicity against human OVCAR5 cells; format: functional, cell-based
[46] = test system: LOX IMVI; experiment: Cytotoxicity against human LOXI MVI cells; format: functional, cell-based
[47] = test system: MDA-N; experiment: Cytotoxicity against human MDA-N cells; format: functional
[48] = test system: HCT-116; experiment: Cytotoxicity against human HCT116 cells; format: functional, cell-based
[49] = test system: HT-29; experiment: as §1; format: functional
[50] = test system: HOP-62; experiment: Cytotoxicity against human HOP62 cells; format: functional
[51] = test system: HOP-92; experiment: Cytotoxicity against human HOP92 cells; format: functional
[52] = test system: HCT-15; experiment: Cytotoxicity against human HCT15 cells; format: functional, cell-based
[53] = test system: UO-31; experiment: Cytotoxicity against human UO31 cells; format: functional
[54] = test system: SK-OV-3; experiment: Cytotoxicity against human SK-OV-3 cells; format: functional, cell-based
[55] = test system: NCI-H322M; experiment: Cytotoxicity against human NCI-H322M cells; format: functional
[56] = test system: A498; experiment: Cytotoxicity against human A498 cells; format: functional
[57] = test system: T47D; experiment: Cytotoxicity against human T47D cells; format: functional
[58] = test system: IGROV-1; experiment: Cytotoxicity against human IGROV1 cells; format: functional
[59] = Cytotoxicity against human P833 cells; format: functional, cell-based
[60] = test system: Aspergillus fumigatus; experiment: Antifungal activity against Aspergillus fumigatus; format: functional
[61] = test system: Candida albicans; experiment: Antifungal activity against Candida albicans; format: functional
[62] = Cytotoxicity against human LXF529L cells; format: functional, cell-based; conditions: LXF 529L
[63] = Cytotoxicity against human MAXF642NL cells; format: functional, cell-based
[64] = Cytotoxicity against human GXF251L cells; format: functional, cell-based; conditions: GXF 251L
[65] = Cytotoxicity against human UXF1138L cells; format: functional, cell-based; conditions: UXF 1138L
[66] = Cytotoxicity against human RXF486L cells; format: functional, cell-based; conditions: RXF 486L
[67] = Cytotoxicity against human MAXF401NL cells; format: functional, cell-based; conditions: MAXF 401NL
[68] = biological target: Protein kinase C alpha type (Homo sapiens) (UniProt P17252); experiment: Agonist activity at protein kinase C alpha at 50 pg/mL; format: functional
[69] = biological target: Protein kinase C delta type (Homo sapiens) (UniProt Q05655); experiment: Agonist activity at protein kinase C delta at 50 pg/mL; format: functional
[70] = biological target: Protein kinase C beta type (Homo sapiens) (UniProt P05771); experiment: Agonist activity at protein kinase C beta2 at 50 pg/mL; format: functional
[71] = biological target: Protein kinase C epsilon type (Homo sapiens) (UniProt Q02156); experiment: Agonist activity at protein kinase C epsilon at 50 pg/mL; format: functional
[72] = biological target: Protein kinase C beta type (Homo sapiens) (UniProt P05771); experiment: Agonist activity at protein kinase C beta-1 at 50 pg/mL; format: functional
[73] = biological target: Protein kinase C gamma type (Homo sapiens, UniProt P05129); experiment: Agonist activity at protein kinase C gamma at 50 pg/mL; format: functional

Protein kinase C beta type (Homo sapiens), sequence (P05771 2-671 limits assumed): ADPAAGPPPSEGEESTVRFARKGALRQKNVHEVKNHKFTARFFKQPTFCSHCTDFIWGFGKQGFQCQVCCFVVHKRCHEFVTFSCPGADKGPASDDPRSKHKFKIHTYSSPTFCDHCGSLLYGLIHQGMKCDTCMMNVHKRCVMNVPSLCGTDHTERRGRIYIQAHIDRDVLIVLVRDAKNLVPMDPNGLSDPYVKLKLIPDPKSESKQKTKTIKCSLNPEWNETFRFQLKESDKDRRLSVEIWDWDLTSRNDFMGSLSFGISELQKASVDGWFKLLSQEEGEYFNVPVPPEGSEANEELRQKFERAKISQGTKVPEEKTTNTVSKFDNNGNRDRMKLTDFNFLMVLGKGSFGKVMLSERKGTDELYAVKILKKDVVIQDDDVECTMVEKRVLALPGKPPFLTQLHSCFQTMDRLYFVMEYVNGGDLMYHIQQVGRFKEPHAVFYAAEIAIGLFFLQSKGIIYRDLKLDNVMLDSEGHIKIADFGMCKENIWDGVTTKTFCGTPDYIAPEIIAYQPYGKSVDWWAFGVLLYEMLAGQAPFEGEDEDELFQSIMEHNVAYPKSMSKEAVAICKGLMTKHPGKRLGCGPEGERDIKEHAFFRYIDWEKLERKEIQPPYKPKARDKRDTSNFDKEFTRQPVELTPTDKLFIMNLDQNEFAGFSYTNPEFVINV
Protein kinase C delta type (Homo sapiens), sequence (Q05655 whole entry, looked up): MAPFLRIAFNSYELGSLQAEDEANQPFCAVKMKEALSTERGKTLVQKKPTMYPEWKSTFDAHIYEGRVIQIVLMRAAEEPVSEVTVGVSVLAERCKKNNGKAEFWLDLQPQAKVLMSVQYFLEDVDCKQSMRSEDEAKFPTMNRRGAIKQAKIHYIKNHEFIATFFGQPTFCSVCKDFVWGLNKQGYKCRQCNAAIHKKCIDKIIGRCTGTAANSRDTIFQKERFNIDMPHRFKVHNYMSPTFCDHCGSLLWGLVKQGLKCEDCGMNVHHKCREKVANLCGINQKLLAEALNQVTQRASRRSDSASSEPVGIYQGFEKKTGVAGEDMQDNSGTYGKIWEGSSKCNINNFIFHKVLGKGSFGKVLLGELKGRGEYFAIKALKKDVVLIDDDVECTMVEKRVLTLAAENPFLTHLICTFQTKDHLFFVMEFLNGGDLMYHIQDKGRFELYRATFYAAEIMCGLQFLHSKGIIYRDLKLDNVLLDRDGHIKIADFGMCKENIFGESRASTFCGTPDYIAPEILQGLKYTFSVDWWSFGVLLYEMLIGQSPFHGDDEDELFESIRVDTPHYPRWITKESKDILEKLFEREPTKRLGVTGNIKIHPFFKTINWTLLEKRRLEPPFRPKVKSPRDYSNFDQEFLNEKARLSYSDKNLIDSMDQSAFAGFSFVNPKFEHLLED
Protein kinase C epsilon type (Homo sapiens), sequence (Q02156 whole entry): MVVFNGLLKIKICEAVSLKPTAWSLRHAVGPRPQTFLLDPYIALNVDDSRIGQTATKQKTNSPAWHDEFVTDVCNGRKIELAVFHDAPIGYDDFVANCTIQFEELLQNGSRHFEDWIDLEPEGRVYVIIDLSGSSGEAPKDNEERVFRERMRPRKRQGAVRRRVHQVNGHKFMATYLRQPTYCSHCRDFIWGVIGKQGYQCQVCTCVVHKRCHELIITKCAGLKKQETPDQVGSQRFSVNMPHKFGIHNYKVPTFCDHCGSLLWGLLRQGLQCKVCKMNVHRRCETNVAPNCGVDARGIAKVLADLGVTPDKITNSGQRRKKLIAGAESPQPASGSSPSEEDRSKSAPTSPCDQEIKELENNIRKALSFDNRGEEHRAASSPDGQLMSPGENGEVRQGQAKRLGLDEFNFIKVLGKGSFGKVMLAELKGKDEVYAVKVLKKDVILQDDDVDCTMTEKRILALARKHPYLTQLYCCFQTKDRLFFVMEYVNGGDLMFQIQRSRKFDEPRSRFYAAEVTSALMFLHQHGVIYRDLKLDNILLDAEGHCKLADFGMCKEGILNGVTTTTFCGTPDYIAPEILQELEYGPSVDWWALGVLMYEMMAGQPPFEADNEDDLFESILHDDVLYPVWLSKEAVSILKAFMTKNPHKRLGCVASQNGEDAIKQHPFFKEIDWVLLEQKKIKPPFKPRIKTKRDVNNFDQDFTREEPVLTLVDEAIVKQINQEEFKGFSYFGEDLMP

## C[C@H](C(=O)O)[C@@H]1CC[C@@](C)(CC[C@@]2(O)[C@H](C)CC[C@@]3(C)C(C)(C)CCC[C@]23C)OO1 [MYCAPEROXIDE B]
[1]
  IC50: 0.5 µg/mL (≈ 1.18 µM)
[2]
  IC50: 0.25 µg/mL (≈ 0.589 µM)
[3]
  IC50: 0.25 µg/mL (≈ 0.589 µM)
[4]
  IC50: 0.5 µg/mL (≈ 1.18 µM)
[5]
  IC50: 0.5 µg/mL (≈ 1.18 µM)

## Cc1ccc2c(c1O)C(=O)c1c(cc(O)c(C(=O)O)c1C)[C@]2(C)OO[C@@]1(C)c2cc(O[C@H]3O[C@@H](CO)[C@@H](O)[C@@H](O[C@@H]4O[C@H](CO)[C@H](O)[C@H](O)[C@H]4O)[C@@H]3O)c(C(=O)O)c(C)c2C(=O)c2c1ccc(C)c2O [ADXANTHROMYCIN B]
[6]
  IC50: 25 µg/mL (≈ 25.5 µM)

## CC(=C/C(=O)O)/C=C/C=C(C)/C=C/[C@@H]1C=C2C(C)(C)CCC[C@]2(C)OO1
[7]
  Activity: inactive
[8]
  IC50: 21 µg/mL (≈ 58.6 µM)
[9]
  IC50: Not Active
[10]
  IC50: 19.8 µg/mL (≈ 55.2 µM)
[11]
  IC50: 21.9 µg/mL (≈ 61.1 µM)
[12]
  IC50: 13.9 µg/mL (≈ 38.8 µM)

## C[C@H]1[C@H](O[C@H]2O[C@@H]3O[C@]4(C)CC[C@H]5[C@H](C)CC[C@@H]([C@H]2C)[C@@]35OO4)O[C@@H]2O[C@]3(C)CC[C@H]4[C@H](C)CC[C@@H]1[C@@]24OO3
[13]
  GI50: 1.3 µg/mL (≈ 2.36 µM)
[14]
  GI50: > 25 µg/mL
[15]
  GI50: > 25 µg/mL
[16]
  GI50: 7.51 µM
[17]
  IC50: 31.2 µM
[18]
  GI50: 2.37 µM
[19]
  GI50: 8.2 µg/mL (≈ 14.9 µM)
[8]; read-out: GI50
  GI50: > 25 µM
[20]
  GI50: 0.61 µM
[21]
  GI50: 1.17 µM
[22]
  GI50: 1.15 µM
[23]
  GI50: > 25 µg/mL
[24]
  GI50: 1.7 µg/mL (≈ 3.09 µM)
[25]
  GI50: 2 µg/mL (≈ 3.63 µM)
[26]
  GI50: 22 µg/mL (≈ 39.9 µM)
[27]
  GI50: 0.19 µg/mL (≈ 0.345 µM)
[28]
  GI50: > 25 µM
[29]
  GI50: > 25 µM
[30]
  GI50: > 25 µg/mL
[31]
  GI50: > 25 µM
[32]
  GI50: 1.04 µM
[33]
  GI50: 2.16 µM
[34]
  GI50: 3.5 µg/mL (≈ 6.36 µM)
[35]
  GI50: 0.66 µM
[36]
  GI50: 16.9 µg/mL (≈ 30.7 µM)
[37]
  GI50: 0.88 µM
[38]
  GI50: 1.45 µg/mL (≈ 2.63 µM)
[39]
  GI50: > 16.8 µg/mL
[40]
  GI50: 1.16 µM
[41]
  GI50: > 25 µg/mL
[42]
  GI50: 8.6 µg/mL (≈ 15.6 µM)
[43]
  GI50: > 3.6 µg/mL
[44]
  IC50: 52.5 µM
[45]
  GI50: > 25 µg/mL
[46]
  GI50: 1 µg/mL (≈ 1.82 µM)
[47]
  GI50: 3.68 µg/mL (≈ 6.68 µM)
[48]
  GI50: 0.71 µM
[49]
  GI50: 1.32 µM
[11]; read-out: GI50
  GI50: 1.51 µg/mL (≈ 2.74 µM)
[50]
  GI50: > 25 µM
[51]
  GI50: 3.66 µM
[52]
  GI50: 0.74 µM
[5]
  GI50: 18.7 µM
[53]
  GI50: 1.7 µg/mL (≈ 3.09 µM)
[54]
  GI50: > 25 µg/mL
[55]
  GI50: > 25 µM
[56]
  GI50: > 25 µg/mL
[57]
  GI50: 1.2 µg/mL (≈ 2.18 µM)
[58]
  GI50: > 25 µg/mL

## C[C@H](C(=O)O)[C@@H]1CC[C@](C)(CC[C@]2(C)[C@H](C)CC[C@@]3(C)C(C)(C)CCC[C@]32O)OO1 [MYCAPEROXIDE A]
[1]
  IC50: 0.5 µg/mL (≈ 1.18 µM)
[2]
  IC50: 0.25 µg/mL (≈ 0.589 µM)
[3]
  IC50: 0.25 µg/mL (≈ 0.589 µM)
[4]
  IC50: 0.5 µg/mL (≈ 1.18 µM)
[5]
  IC50: 0.5 µg/mL (≈ 1.18 µM)

## CC/C=C/[C@H](CC)C[C@]1(CC)C=C(CC)[C@H](CC(=O)O)OO1 [HATERUMADIOXIN A]
[59]
  IC50: 0.011 µg/mL (≈ 0.0354 µM)

## CC/C=C/C(CC)C/C=C/[C@@]1(CC)C[C@H](CC)[C@@H](CC(=O)O)OO1 (some centres not stated)
[60]
  IC90: 5.6 µg/mL (≈ 16.5 µM)
[61]
  MIC: 5 µg/mL (≈ 14.8 µM)

## CCCCCC[C@@]1(CC)C=C(CC)[C@@H](CC(=O)OC)OO1
[62]
  IC50: 7.7 µg/mL (≈ 25.8 µM)
[63]
  IC50: 7.2 µg/mL (≈ 24.1 µM)
[64]
  IC50: 8.3 µg/mL (≈ 27.8 µM)
[65]
  IC50: 14.1 µg/mL (≈ 47.2 µM)
[66]
  IC50: 14.4 µg/mL (≈ 48.3 µM)
[67]
  IC50: 14.9 µg/mL (≈ 49.9 µM)

## CCCCC[C@@]1(CC)C=C(CC)[C@@H](CC(=O)OC)OO1
[62]
  IC50: > 10 µg/mL
[63]
  IC50: > 10 µg/mL
[64]
  IC50: > 10 µg/mL
[65]
  IC50: > 10 µg/mL
[66]
  IC50: > 10 µg/mL
[67]
  IC50: > 10 µg/mL

## CC(CCCCCCCCc1ccccc1)C[C@]1(C)C[C@]2(C)OC(=O)C[C@@H]2OO1 (some centres not stated)
[68]
  Activity: 19%
[69]
  Activity: 9%
[70]
  Activity: 27%
[71]
  Activity: 38%
[72]
  Activity: 13%
[73]
  Activity: 9%
